Experimental data as given in the NIST ThermoML archive (doi:10.1021/acs.jced.5b00931).
± gives the expanded uncertainty stated by the source.

CCCC[n+]1cccc(C)c1.O=S(=O)([O-])C(F)(F)F [1-butyl-3-methylpyridinium trifluoromethanesulfonate]
101.33 kPa, Liquid
Conditions | mass density, Vibrating tube method [kg/m3] | viscosity, Falling or rolling sphere viscometry [mPa·s]
293.15 K | 1279 ± 2 | 165 ± 18
298.15 K | 1275.2 ± 2 | 126 ± 13
303.15 K | 1271.4 ± 2 | 95.7 ± 9.8
308.15 K | 1267.6 ± 2 | 75.9 ± 7.7
313.15 K | 1263.8 ± 2 | 60.2 ± 6
318.15 K | 1260 ± 2 | 45.8 ± 4.6
323.15 K | 1256.2 ± 2 | 37.6 ± 3.8
328.15 K | 1252.5 ± 2 | 31.4 ± 3.2
333.15 K | 1248.7 ± 2 | 26.3 ± 2.6
338.15 K | 1245 ± 2 | 22.6 ± 2.3
343.15 K | 1241.2 ± 2 | 19.4 ± 1.9
348.15 K | 1237.5 ± 2 | 16.9 ± 1.7
353.15 K | 1233.8 ± 2 | 14.9 ± 1.5
358.15 K | 1230.1 ± 2 | 13.1 ± 1.3
363.13 K | 1226.5 ± 2 | –
363.15 K | – | 11.6 ± 1.2

CCCC[N+]1(C)CCCCC1.O=S(=O)([O-])C(F)(F)F [1-butyl-1-methylpiperidinium trifluoromethanesulfonate]
101.33 kPa, Liquid
Conditions | mass density, Vibrating tube method [kg/m3] | viscosity, Falling or rolling sphere viscometry [mPa·s]
333.15 K | 1216.8 ± 2 | 107 ± 11
338.15 K | 1213.3 ± 2 | 84.6 ± 8.6
343.15 K | 1209.8 ± 2 | 67.8 ± 6.8
348.15 K | 1206.4 ± 2 | 55.2 ± 5.5
353.15 K | 1202.9 ± 2 | 45.6 ± 4.6
358.15 K | 1199.5 ± 2 | 38 ± 3.8
363.13 K | 1196.1 ± 2 | –
363.15 K | – | 32 ± 3.2

CCCC[N+]1(C)CCCC1.O=S(=O)([O-])C(F)(F)F [1-butyl-1-methylpyrrolidinium trifluoromethanesulfonate]
101.33 kPa, Liquid
Conditions | mass density, Vibrating tube method [kg/m3] | viscosity, Falling or rolling sphere viscometry [mPa·s]
293.15 K | 1255.7 ± 2 | 217 ± 24
298.15 K | 1252 ± 2 | 164 ± 18
303.15 K | 1248.3 ± 2 | 128 ± 13
308.15 K | 1244.7 ± 2 | 101 ± 10
313.15 K | 1241 ± 2 | 80.7 ± 8.2
318.15 K | 1237.4 ± 2 | 65.7 ± 6.6
323.15 K | 1233.8 ± 2 | 54.3 ± 5.4
328.15 K | 1230.2 ± 2 | 42.4 ± 4.3
333.15 K | 1226.7 ± 2 | 35.7 ± 3.6
338.15 K | 1223.1 ± 2 | 30.4 ± 3.1
343.15 K | 1219.6 ± 2 | 26.1 ± 2.6
348.15 K | 1216.1 ± 2 | 22.7 ± 2.3
353.15 K | 1212.6 ± 2 | 19.8 ± 2
358.15 K | 1209 ± 2 | 17.4 ± 1.7
363.13 K | 1205.5 ± 2 | –
363.15 K | – | 15.5 ± 1.6
